Laboratory results from patent US8030354B2, “Substituted biphenyl GPR40 modulators” (Amgen Inc., priority 2007, dated 2011).

Molecular target: GPR40 (Homo sapiens, UniProt O14842)
Experiment: Cell-based aequorin assay (CHO cells stably expressing GPR40 and aequorin)
Design: expressed in transfected cells; host or cells: CHO cells stably transfected with GPR40 and aequorin
Settings: activation of human GPR40, CHO cells, 0.01% HSA
Summary of the method: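 CHO cells stably co-expressing GPR40 and aequorin, loaded with coelenterazine (1 ug/mL, 2 h, room temperature) in H/HBSS with 20 mM Hepes and 0.01% fatty acid-free HSA. Serially diluted compounds added; luminescence recorded over 20 s. EC50 from dose-response of maximum relative light units.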

Chain of GPR40 (O14842 whole entry): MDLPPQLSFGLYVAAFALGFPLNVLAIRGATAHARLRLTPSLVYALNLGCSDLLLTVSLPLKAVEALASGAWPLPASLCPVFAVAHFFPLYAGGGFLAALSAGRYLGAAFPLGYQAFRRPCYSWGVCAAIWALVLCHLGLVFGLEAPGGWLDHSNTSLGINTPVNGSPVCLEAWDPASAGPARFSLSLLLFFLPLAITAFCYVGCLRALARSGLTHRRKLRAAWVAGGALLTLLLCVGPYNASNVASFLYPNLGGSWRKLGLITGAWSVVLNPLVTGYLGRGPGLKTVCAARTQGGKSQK

| EC50 | Structure (SMILES) |
| --- | --- |
| 1000 to 10000 nM | CC1(C)CCC=C1c1cc(COc2cccc([C@@H](CC(=O)O)C3CC3)c2)ccc1-c1cc(C(F)(F)F)ccc1F (single isomer, unassigned) [Example 66.53, (3S)-3-Cyclopropyl-3-(3-(((2-(5,5-dimethyl-1-cyclopenten-1-yl)-2′-fluoro-5′-(trifluoromethyl)-1,1′-biphenyl-4-yl)methyl)oxy)phenyl)propanoic acid or (3R)-3-cyclopropyl-3-(3-(((2-(5,5-dimethyl-1-cyclopenten-1-yl)-2′-fluoro-5′-(trifluoromethyl)-1,1′-biphenyl-4-yl)methyl)oxy)phenyl)propanoic acid] |
| 1000 to 10000 nM | C=CC(C)(C)[C@@H](O)c1cc(COc2cccc([C@@H](CC(=O)O)C3CC3)c2)ccc1-c1cc(OC)ccc1F (single isomer, unassigned) [Example 66.60] |
| 100 to 1000 nM | C=CC(C)(C)C(O)c1cc(COc2cccc(C(CC(=O)O)C3CC3)c2)ccc1-c1cc(OC)ccc1F (single isomer, unassigned) [Example 66.61] |
| 1000 to 10000 nM | COc1ccc(F)c(-c2ccc(COc3cccc([C@@H](CC(=O)O)C4CC4)c3)cc2CN2CCCCC2)c1 (single isomer, unassigned) [Example 66.64, (3S)-3-Cyclopropyl-3-(3-(((2′-fluoro-5′-(methyloxy)-2-(1-piperidinylmethyl)-1,1′-biphenyl-4-yl)methyl)oxy)phenyl)propanoic acid or (3R)-3-cyclopropyl-3-(3-(((2′-fluoro-5′-(methyloxy)-2-(1-piperidinylmethyl)-1,1′-biphenyl-4-yl)methyl)oxy)phenyl)propanoic acid] |
| 1000 to 10000 nM | COc1ccc(F)c(-c2ccc(COc3cccc([C@@H](CC(=O)O)C4CC4)c3)cc2CN2CCCC2)c1 (single isomer, unassigned) [Example 66.65, (3S)-3-Cyclopropyl-3-(3-(((2′-fluoro-5′-(methyloxy)-2-(1-pyrrolidinylmethyl)-1,1′-biphenyl-4-yl)methyl)oxy)phenyl)propanoic acid or (3R)-3-cyclopropyl-3-(3-(((2′-fluoro-5′-(methyloxy)-2-(1-pyrrolidinylmethyl)-1,1′-biphenyl-4-yl)methyl)oxy)phenyl)propanoic acid] |
| 1000 to 10000 nM | CC1(c2cccc(-c3ccc(COc4cccc(C(CC(=O)O)C5CC5)c4)cc3C3CCCC3(C)C)c2)OCCO1 (single isomer, unassigned) [Example 66.72, (S)-3-(3-((S)-3-((S)-2,2-Dimethylcyclopentyl)-4-(3-(2-methyl-1,3-dioxolan-2-yl)phenyl)benzyloxy)phenyl)-3-cyclopropylpropanoic acid or stereoisomer thereof] |
| 1000 to 10000 nM | COc1ccc(F)c(-c2ccc(COc3cccc(C(CC(=O)O)C4CC4)c3)cc2CN2CCCCCC2)c1 (single isomer, unassigned) [Example 66.73, (3S)-3-(3-(((2-(1-Azepanylmethyl)-2′-fluoro-5′-(methyloxy)-1,1′-biphenyl-4-yl)methyl)oxy)phenyl)-3-cyclopropylpropanoic acid or (3R)-3-(3-(((2-(1-azepanylmethyl)-2′-fluoro-5′-(methyloxy)-1,1′-biphenyl-4-yl)methyl)oxy)phenyl)-3-cyclopropylpropanoic acid] |
| 1000 to 10000 nM | CC(=O)c1cccc(-c2ccc(COc3cccc([C@@H](CC(=O)O)C4CC4)c3)cc2[C@H]2CCCC2(C)C)c1 (single isomer, unassigned) [Example 66.74, (S)-3-(3-((S)-3-((S)-2,2-Dimethylcyclopentyl)-4-(3-acetylphenyl)benzyloxy)phenyl)-3-cyclopropylpropanoic acid or stereoisomer thereof] |
| 1000 to 10000 nM | COc1ccc(F)c(-c2ccc(COc3cccc(C(CC(=O)O)C4CC4)c3)cc2CN2CCCC[C@@H]2C)c1 (single isomer, unassigned) [Example 66.75, (3S)-3-Cyclopropyl-3-(3-(((2′-fluoro-5′-(methyloxy)-2-(((2S)-2-methyl-1-piperidinyl)methyl)-1,1′-biphenyl-4-yl)methyl)oxy)phenyl)propanoic acid or (3R)-3-cyclopropyl-3-(3-(((2′-fluoro-5′-(methyloxy)-2-(((2S)-2-methyl-1-piperidinyl)methyl)-1,1′-biphenyl-4-yl)methyl)oxy)phenyl)propanoic acid] |
| 1000 to 10000 nM | CC(C)(O)c1cccc(-c2ccc(COc3cccc([C@@H](CC(=O)O)C4CC4)c3)cc2[C@H]2CCCC2(C)C)c1 (single isomer, unassigned) [Example 66.76, (S)-3-(3-((S)-3-((S)-2,2-dimethylcyclopentyl)-4-(3-(2-hydroxypropan-2-yl)phenyl)benzyloxy)phenyl)-3-cyclopropylpropanoic acid or stereoisomer thereof] |
| 100 to 1000 nM | CCCCCOc1cc(COc2cccc(C(CCC)CC(=O)O)c2)ccc1-c1cc(OC)ccc1F (single isomer, unassigned) [Example 67.1, (3R)-3-(3-(((2′-Fluoro-5′-(methyloxy)-2-(pentyloxy)-1,1′-biphenyl-4-yl)methyl)oxy)phenyl)hexanoic acid or (3S)-3-(3-(((2∝-fluoro-5′-(methyloxy)-2-(pentyloxy)-1,1′-biphenyl-4-yl)methyl)oxy)phenyl)hexanoic acid] |
| 100 to 1000 nM | CCCC(CC(=O)O)c1cccc(OCc2ccc(-c3cc(OC)ccc3F)c(C(C)(C)C)c2F)c1 (single isomer, unassigned) [Example 67.3, (3R)-3-(3-(((2-(1,1-Dimethylethyl)-2′,3-difluoro-5′-(methyloxy)-1,1′-biphenyl-4-yl)methyl)oxy)phenyl)hexanoic acid or (3S)-3-(3-(((2-(1,1-dimethylethyl)-2′,3-difluoro-5′-(methyloxy)-1,1′-biphenyl-4-yl)methyl)oxy)phenyl)hexanoic acid] |
| 100 to 1000 nM | CCCC(CC(=O)O)c1cccc(OCc2ccc(-c3cc(OC)ccc3F)c(/C=C/C(C)(C)C)c2)c1 (single isomer, unassigned) [Example 67.4, (3R)-3-(3-(((2-((1E)-3,3-Dimethyl-1-butenyl)-2′-fluoro-5′-(methyloxy)-1,1′-biphenyl-4-yl)methyl)oxy)phenyl)hexanoic acid or (3S)-3-(3-(((2-((1E)-3,3-dimethyl-1-butenyl)-2′-fluoro-5′-(methyloxy)-1,1′-biphenyl-4-yl)methyl)oxy)phenyl)hexanoic acid] |
| 100 to 1000 nM | CCCC(CC(=O)O)c1cccc(OCc2ccc(-c3cc(OC)ccc3F)c(C3=CCC(C)(C)CC3)c2)c1 (single isomer, unassigned) [Example 67.5, (3R)-3-(3-(((2-(4,4-Dimethyl-1-cyclohexen-1-yl)-2′-fluoro-5′-(methyloxy)-1,1′-biphenyl-4-yl)methyl)oxy)phenyl)hexanoic acid or (3S)-3-(3-(((2-(4,4-dimethyl-1-cyclohexen-1-yl)-2′-fluoro-5′-(methyloxy)-1,1′-biphenyl-4-yl)methyl)oxy)phenyl)hexanoic acid] |

| Structure (SMILES) | EC50 |
| --- | --- |
| COc1ccc(F)c(-c2ccc(COc3cccc([C@@H](CC(=O)O)C4CC4)c3)cc2[C@H]2OCCCC2(C)C)c1 (single isomer, unassigned) [Example 66.55] | 1000 to 10000 nM |
